According to patent publication US6828350B1, “Modulators of cysteine protease” (Exegenics Inc., priority 1997, dated 2004):
Values joined by “and” are separate entries in the source; they are usually repeats but may differ in a detail not shown here. Equal entries are not always repeated.

Tested on: 3C protease
Assay: not given
Details: background, in words; cited from earlier work

SMILES | inhibition of the 3C protease
C[C@H]1CC2=C(C(=O)c3c(O)cc(O)cc3C2=O)[C@H](O)O1 [Thysanone] | inhibitor of the 3C protease
C/C=C/c1cc2c(c(=O)o1)C(=O)[C@@H](O)[C@H](C)O2 [radicinin] | lower level of inhibition than thysanone

Tested on: not given
Assay: not given
Details: not given

SMILES | melting point [°C]
CC(=O)c1c(O)cccc1OCC(N)=O (hydrate or solvate) [SA#121, 2-(2-acetyl-3-hydroxyphenoxy)-acetamide] | 151 to 152

Tested on: HRV 1B
Assay: Antiviral assay, XTT method, HRV 1B
Type: cell-based
Details: not given

SMILES | IC50 [µM]
O=C(CCc1ccccc1)c1cc(Cl)ccc1O [SA#43] | 40 ± 10

Same assay, conditions: HRV 1B; Format 1

SMILES | IC50 [µM]
CCOC(=O)c1c(O)cc(O)c(C(C)=O)c1O [SA#132] | 24

Same assay, conditions: HRV 1B; Format 2

IC50 [µM] | SMILES
29 ± 1 | O=C(CCc1ccccc1)c1ccccc1O [compound 42]
26 ± 15 | O=C(CCc1ccc(O)cc1)c1c(O)cc(O)cc1O [compound 91]
11 ± 1 | O=C(NCCc1ccccc1)c1cc([N+](=O)[O-])cc([N+](=O)[O-])c1O [SA#127]
33 ± 3 | CC(=O)c1cc(O)ccc1O [compound 8]
4 ± 1 | O=Cc1cc(Cl)cc(Cl)c1O [compound 33]
7 ± 4 | O=c1c(O)c(-c2ccc(O)cc2)oc2cc(O)cc(O)c12 [compound 90]

SMILES | IC50 [µM]
COc1ccc(O)c(C(C)=O)c1 [compound 37] | 610 ± 160
CC(=O)c1c(O)ccc2ccccc12 [compound 35] | 240 ± 140
CC(=O)c1cc(Cl)cc(Cl)c1O [compound 29] | 8 ± 5
CC(=O)c1cc(Cl)ccc1O [compound 12] | 305 ± 55

Tested on: elastase present in erythrocytes
Assay: not given
Details: background, in words; cited from earlier work

SMILES | inhibition of elastase
C[C@H]1CC2=C(C(=O)c3c(O)cc(O)cc3C2=O)[C@H](O)O1 [Thysanone] | efficient inhibitor

Tested on: Hl-Hela cells
Assay: Cytotoxicity by XTT assay (treated, mock-infected cells)
Details: read-out: TC50; Format 1; concentration that retards cell growth by 50%, mock-infected Hl-Hela cells

SMILES | CC50 [µM]
CC(=O)c1cc(Br)ccc1O [compound 28] | 1230 ± 610
CCC(=O)c1cc(O)ccc1O [compound 36] | 1720 ± 660
O=C(c1ccccc1)c1ccccc1O [compound 136] | 28 ± 2
CC(=O)c1cc(Br)cc(Br)c1O [compound 38] | 59 ± 4
CCCCCC(=O)c1cc(Cl)c(O)c(Cl)c1O [SA#116] | 24 ± 6
CCCCCC(=O)c1c(O)c(Cl)c(OC)c(Cl)c1OCC(N)=O [compound 118] | 122 ± 6
COc1cc(O)c(C(C)=O)c(OC)c1 [compound 14] | 780 ± 206
CC(=O)c1c(O)ccc2ccccc12 [compound 35] | 180 ± 10
CCCCCC(=O)c1c(OC)cc(O)c(Cl)c1O [SA#134] | 48 ± 6
CC(=O)c1cc(Cl)cc(Cl)c1O [compound 29] | 29 ± 8
CC(=O)c1cc(Cl)cc([N+](=O)[O-])c1O [compound 31] | 12 ± 1
CCCCCC(=O)c1c(O)cc(O)c(Cl)c1OC [compound 125] | 50 ± 5
CCOC(=O)c1c(O)cc(O)c(C(C)=O)c1O [SA#132] | 29 ± 5
CC(=O)c1cc(Cl)ccc1O [compound 12] | > 2500

Tested on: not listed separately
Assay: as above
Details: human, H1-HeLa cells (ATCC), mock-infected

SMILES | CC50 [µM]
COc1ccc(O)c(C(C)=O)c1 [compound 37] | > 1250

Target: T1, Apopain (caspase-3) (Homo sapiens, UniProt P42574)
T1 construct: purchased Bio-rad FluorAce Apopain Assay Kit (booklet 4100119)
T1 sequence (P42574 29-175 limits assumed): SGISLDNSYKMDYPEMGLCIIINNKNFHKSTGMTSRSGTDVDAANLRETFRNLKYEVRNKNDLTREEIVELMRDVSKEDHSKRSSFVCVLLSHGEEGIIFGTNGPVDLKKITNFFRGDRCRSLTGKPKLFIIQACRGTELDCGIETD
T1 sequence (P42574 176-277 limits assumed): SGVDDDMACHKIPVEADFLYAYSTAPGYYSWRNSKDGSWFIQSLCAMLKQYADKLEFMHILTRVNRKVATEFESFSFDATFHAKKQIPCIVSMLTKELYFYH
Assay: Apopain (Caspase-3) Regulation Assay (FluorAce Apopain Assay Kit)
Type: biochemical
Details: Apopain modulation: Inhibitor or Activator
Procedure: VI: Apopain (Caspase-3) Regulation Assay
The FluorAce™ Apopain Assay Kit (Bio-rad) was employed in multiwell format. Compounds assayed were diluted 5-fold in distilled water (from stock solutions in ethanol or DMSO) and centrifuged (5′, 14K rpm). 10 μL of the supernatant was further diluted in wells containing 100 μL distilled water and 40 μL 6×Buffer (41.7 mM PIPES, pH 7.4, 8.3 mM EDTA, 0.42% CHAPS, 20.8 mM DTT). This process was carried out twice to yield duplicate wells for each compound. Control wells were prepared by addition of EtOH and DMSO (5-fold diluted in distilled water) into wells containing 6×Buffer and distilled water (40 μL and 100 μL, respectively), to form 8 wells with each solvent. Enzyme (stock solution 10-fold diluted in distilled water, see Bio-rad booklet 4100119) was added to one set of compound-containing cells and to 8 control wells (4 with ethanol and 4 with DMSO). The plate was preincubated for ˜80′ at 27°-28° C. Substrate (Z-DEVD-AFC, 490 μM, 40 μL) was then added to all wells. The plate was left at room temperature and fluorescence (360/40↑530/20↓) was measured at several time points (FL500 fluorimetric reader, Bio-tek instruments). Fluorescence at enzyme-containing wells was background-subtracted at each time point and initial rates were determined by linear regression (typically R^2>0.97). Percentage inhibition and activation was determined by relating the slope with compound to the control slope (with appropriate solvent). IC50 values are extrapolated.

Activity | SMILES
Inhibitor | O=C(CCc1ccc(O)cc1)c1c(O)cc(O)cc1O [compound 91]
Inhibitor | CC(=O)c1cc(O)ccc1O [compound 8]
Inhibitor | O=Cc1cc(Cl)cc(Cl)c1O [compound 33]

SMILES | Activity
COc1ccc(O)c(C(C)=O)c1 [compound 37] | Inhibitor

Tested on: HRV 1A
Assay: Antiviral assay, XTT method, HRV 1A
Type: cell-based
Details: Format 1

SMILES | IC50 [µM]
CCCCCC(=O)c1c(O)c(Cl)c(OC)c(Cl)c1OCC(N)=O [compound 118] | 81
CCOC(=O)c1c(O)cc(O)c(C(C)=O)c1O [SA#132] | 13

Same assay, conditions: Format 2

IC50 [µM] | SMILES
210 ± 70 | O=C(CCc1ccccc1)c1ccccc1O [compound 42]
130 ± 14 | O=C(CCc1ccc(O)cc1)c1c(O)cc(O)cc1O [compound 91]
13 ± 3 | O=C(NCCc1ccccc1)c1cc([N+](=O)[O-])cc([N+](=O)[O-])c1O [SA#127]
141 ± 25 | CC(=O)c1cc(O)ccc1O [compound 8]
9 ± 1 | O=Cc1cc(Cl)cc(Cl)c1O [compound 33]
5 ± 1 | O=c1c(O)c(-c2ccc(O)cc2)oc2cc(O)cc(O)c12 [compound 90]

SMILES | IC50 [µM]
COc1ccc(O)c(C(C)=O)c1 [compound 37] | 830 ± 330
CC(=O)c1c(O)ccc2ccccc12 [compound 35] | 630 ± 470
CC(=O)c1cc(Cl)cc(Cl)c1O [compound 29] | 19 ± 8
CC(=O)c1cc(Cl)cc([N+](=O)[O-])c1O [compound 31] | 80 ± 62

Tested on: HRV 14
Assay: Antiviral assay, XTT method, HRV 14
Type: cell-based
Details: not given

SMILES | IC50 [µM]
O=C(CCc1ccccc1)c1cc(Cl)ccc1O [SA#43] | 30 ± 20

Same assay, conditions: HRV 14; Format 1; restores 50% of viral-caused decrease in cell viability

SMILES | IC50 [µM]
CC(=O)c1cc(Br)ccc1O [compound 28] | 6.2
CCC(=O)c1cc(O)ccc1O [compound 36] | 27
O=C(c1ccccc1)c1ccccc1O [compound 136] | 6.3
CC(=O)c1cc(Br)cc(Br)c1O [compound 38] | 26
COc1ccc(O)c(C(C)=O)c1 [compound 37] | 146
CCCCCC(=O)c1cc(Cl)c(O)c(Cl)c1O [SA#116] | 13
CCCCCC(=O)c1c(O)c(Cl)c(OC)c(Cl)c1OCC(N)=O [compound 118] | 380
O=C(NCCc1ccccc1)c1cc([N+](=O)[O-])cc([N+](=O)[O-])c1O [SA#127] | 23
CC(=O)c1c(O)ccc2ccccc12 [compound 35] | 62
CCCCCC(=O)c1c(OC)cc(O)c(Cl)c1O [SA#134] | 63
CC(=O)c1cc(Cl)cc(Cl)c1O [compound 29] | 4.8
CC(=O)c1cc(Cl)cc([N+](=O)[O-])c1O [compound 31] | 14
CCCCCC(=O)c1c(O)cc(O)c(Cl)c1OC [compound 125] | 45
CCOC(=O)c1c(O)cc(O)c(C(C)=O)c1O [SA#132] | 17

Same assay, conditions: HRV 14; Format 2

SMILES | IC50
CC(=O)c1cc(Br)ccc1O [compound 28] | 91 ± 62 µM
CCC(=O)c1cc(O)ccc1O [compound 36] | 32 ± 4 µM
O=C(c1ccccc1)c1ccccc1O [compound 136] | 13 ± 5 µM
CC(=O)c1cc(Br)cc(Br)c1O [compound 38] | 10 ± 2 µM
COc1ccc(O)c(C(C)=O)c1 [compound 37] | 220 ± 23 µM
CCCCCC(=O)c1cc(Cl)c(O)c(Cl)c1O [SA#116] | 50 ± 7 µM
O=C(CCc1ccccc1)c1ccccc1O [compound 42] | 120 ± 40 µM
O=C(CCc1ccc(O)cc1)c1c(O)cc(O)cc1O [compound 91] | 9 ± 4 µM
O=C(NCCc1ccccc1)c1cc([N+](=O)[O-])cc([N+](=O)[O-])c1O [SA#127] | 16 ± 4 µM
CC(=O)c1cc(O)ccc1O [compound 8] | 230 ± 170 µM
CC(=O)c1c(O)ccc2ccccc12 [compound 35] | 42 ± 20 µM
CCCCCC(=O)c1c(OC)cc(O)c(Cl)c1O [SA#134] | 122 ± 14 µM
CC(=O)c1cc(Cl)cc(Cl)c1O [compound 29] | 6 ± 2 µM
CC(=O)c1cc(Cl)cc([N+](=O)[O-])c1O [compound 31] | 11 ± 1 µM
O=Cc1cc(Cl)cc(Cl)c1O [compound 33] | 14 ± 3 µM
O=c1c(O)c(-c2ccc(O)cc2)oc2cc(O)cc(O)c12 [compound 90] | 1.2 ± 0.5 µM
CC(=O)c1cc(Cl)ccc1O [compound 12] | 150 µM and 290 µM

Tested on: HRV 16
Assay: Antiviral assay, XTT method, HRV 16
Type: cell-based
Details: not given

SMILES | IC50 [µM]
O=C(CCc1ccccc1)c1cc(Cl)ccc1O [SA#43] | 340 ± 70

Same assay, conditions: HRV 16; Format 1

SMILES | IC50 [µM]
CCCCCC(=O)c1cc(Cl)c(O)c(Cl)c1O [SA#116] | 21
COc1cc(O)c(C(C)=O)c(OC)c1 [compound 14] | 225
CCCCCC(=O)c1c(OC)cc(O)c(Cl)c1O [SA#134] | 12
CCCCCC(=O)c1c(O)cc(O)c(Cl)c1OC [compound 125] | 60
CC(=O)c1cc(Cl)ccc1O [compound 12] | 137

Same assay, conditions: HRV 16; Format 2

SMILES | IC50 [µM]
CC(=O)c1cc(Br)ccc1O [compound 28] | 159 ± 44
CCC(=O)c1cc(O)ccc1O [compound 36] | 44 ± 15
O=C(c1ccccc1)c1ccccc1O [compound 136] | 6 ± 3
CC(=O)c1cc(Br)cc(Br)c1O [compound 38] | 6 ± 2
COc1ccc(O)c(C(C)=O)c1 [compound 37] | 149 ± 148
CCCCCC(=O)c1cc(Cl)c(O)c(Cl)c1O [SA#116] | 61 ± 37
O=C(CCc1ccc(O)cc1)c1c(O)cc(O)cc1O [compound 91] | 50 ± 10
O=C(NCCc1ccccc1)c1cc([N+](=O)[O-])cc([N+](=O)[O-])c1O [SA#127] | 15 ± 4
CC(=O)c1cc(O)ccc1O [compound 8] | 35 ± 7
CC(=O)c1c(O)ccc2ccccc12 [compound 35] | 38 ± 14
CCCCCC(=O)c1c(OC)cc(O)c(Cl)c1O [SA#134] | 13 ± 6
CC(=O)c1cc(Cl)cc(Cl)c1O [compound 29] | 6 ± 2
CC(=O)c1cc(Cl)cc([N+](=O)[O-])c1O [compound 31] | 35 ± 26
O=Cc1cc(Cl)cc(Cl)c1O [compound 33] | 6 ± 1
O=c1c(O)c(-c2ccc(O)cc2)oc2cc(O)cc(O)c12 [compound 90] | 7 ± 4
CC(=O)c1cc(Cl)ccc1O [compound 12] | 590 ± 300

Tested on: Hl-Hela cells
Assay: not given
Details: not given

SMILES | CC50 [µM]
O=C(NCCc1ccccc1)c1cc([N+](=O)[O-])cc([N+](=O)[O-])c1O [SA#127] | 187 ± 18
